Results from PubChem BioAssay AID2060883 (Molecular Pharmacology Branch, DTP, NCI, 2025).
Where “and” joins values, the source holds several entries; their conditions need not be identical. Equal entries are not always repeated. One block for each compound: values may come before it.

Test system: 843782-103-R-J1-PDC complex spheroid viability
Experiment: Anticancer human tumor 843782-103-R-J1-PDC patient-derived lung adenocarcinoma cell line growth inhibition [RAS]
Settings: for viability, T/C: stronger effect = lower value
Summary of the method: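 Tumour cells grown as complex spheroids with HUVEC endothelial cells and mesenchymal stem cells, treated with RAS pathway inhibitor combinations. Each agent spans half-log steps from near clinical Cmax, or 10 microM where Cmax is unknown.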

[1] = curve of first compound, second compound 0.000949 µM
[2] = curve of first compound, second compound 0.003 µM
[3] = curve of first compound, second compound 0.00949 µM
[4] = curve of first compound, second compound 0.03 µM
[5] = curve of first compound, second compound 0.0949 µM
[6] = curve of first compound, second compound 0.3 µM
[7] = second compound 0.000949 µM, first compound 0.0316 µM
[8] = second compound 0.000949 µM, first compound 0.1 µM
[9] = second compound 0.000949 µM, first compound 0.316 µM
[10] = second compound 0.000949 µM, first compound 1 µM
[11] = second compound 0.000949 µM, first compound 3.16 µM
[12] = second compound 0.000949 µM, first compound 10 µM
[13] = second compound 0.003 µM, first compound 0.0316 µM
[14] = second compound 0.003 µM, first compound 0.1 µM
[15] = second compound 0.003 µM, first compound 0.316 µM
[16] = second compound 0.003 µM, first compound 1 µM
[17] = second compound 0.003 µM, first compound 3.16 µM
[18] = second compound 0.003 µM, first compound 10 µM
[19] = second compound 0.00949 µM, first compound 0.0316 µM
[20] = second compound 0.00949 µM, first compound 0.1 µM
[21] = second compound 0.00949 µM, first compound 0.316 µM
[22] = second compound 0.00949 µM, first compound 1 µM
[23] = second compound 0.00949 µM, first compound 3.16 µM
[24] = second compound 0.00949 µM, first compound 10 µM
[25] = second compound 0.03 µM, first compound 0.0316 µM
[26] = second compound 0.03 µM, first compound 0.1 µM
[27] = second compound 0.03 µM, first compound 0.316 µM
[28] = second compound 0.03 µM, first compound 1 µM
[29] = second compound 0.03 µM, first compound 3.16 µM
[30] = second compound 0.03 µM, first compound 10 µM
[31] = second compound 0.0949 µM, first compound 0.0316 µM
[32] = second compound 0.0949 µM, first compound 0.1 µM
[33] = second compound 0.0949 µM, first compound 0.316 µM
[34] = second compound 0.0949 µM, first compound 1 µM
[35] = second compound 0.0949 µM, first compound 3.16 µM
[36] = second compound 0.0949 µM, first compound 10 µM
[37] = second compound 0.3 µM, first compound 0.0316 µM
[38] = second compound 0.3 µM, first compound 0.1 µM
[39] = second compound 0.3 µM, first compound 0.316 µM
[40] = second compound 0.3 µM, first compound 1 µM
[41] = second compound 0.3 µM, first compound 3.16 µM
[42] = second compound 0.3 µM, first compound 10 µM
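Further: viability read after seven days of compound exposure.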

SMILES: Nc1ccn(C2OC(CO)C(O)C2(F)F)c(=O)n1 (centres undefined) + C#Cc1c(F)ccc2cc(O)cc(-c3ncc4c(N5CC6CCC(C5)N6)nc(OCC56CCCN5CC(F)C6)nc4c3F)c12
- IC50 (curve of first compound, second compound 0.0316 µM): 29.3 nM
- IC50 (curve of first compound, second compound 0.1 µM): 39.3 nM
- IC50 (curve of first compound, second compound 0.316 µM): 42.6 nM
- IC50 (curve of first compound, second compound 1 µM): 32.6 nM
- IC50 (curve of first compound, second compound 3.16 µM): 21.8 nM
- IC50 (curve of first compound, second compound 10 µM): 14.3 nM
- viability, T/C (second compound 0.0316 µM, first compound 0.00316 µM): 101%
- viability, T/C (second compound 0.0316 µM, first compound 0.01 µM): 101%
- viability, T/C (second compound 0.0316 µM, first compound 0.0316 µM): 46.1%
- viability, T/C (second compound 0.0316 µM, first compound 0.1 µM): 8.18%
- viability, T/C (second compound 0.0316 µM, first compound 0.316 µM): 2.69%
- viability, T/C (second compound 0.0316 µM, first compound 1 µM): 1.88%
- viability, T/C (second compound 0.1 µM, first compound 0.00316 µM): 99.5%
- viability, T/C (second compound 0.1 µM, first compound 0.01 µM): 106%
- viability, T/C (second compound 0.1 µM, first compound 0.0316 µM): 59.7%
- viability, T/C (second compound 0.1 µM, first compound 0.1 µM): 8.24%
- viability, T/C (second compound 0.1 µM, first compound 0.316 µM): 1.77%
- viability, T/C (second compound 0.1 µM, first compound 1 µM): 1.7%
- viability, T/C (second compound 0.316 µM, first compound 0.00316 µM): 107%
- viability, T/C (second compound 0.316 µM, first compound 0.01 µM): 103%
- viability, T/C (second compound 0.316 µM, first compound 0.0316 µM): 65.4%
- viability, T/C (second compound 0.316 µM, first compound 0.1 µM): 5.81%
- viability, T/C (second compound 0.316 µM, first compound 0.316 µM): 2.1%
- viability, T/C (second compound 0.316 µM, first compound 1 µM): 2.74%
- viability, T/C (second compound 1 µM, first compound 0.00316 µM): 110%
- viability, T/C (second compound 1 µM, first compound 0.01 µM): 90.7%
- viability, T/C (second compound 1 µM, first compound 0.0316 µM): 54.1%
- viability, T/C (second compound 1 µM, first compound 0.1 µM): 9.25%
- viability, T/C (second compound 1 µM, first compound 0.316 µM): 2.99%
- viability, T/C (second compound 1 µM, first compound 1 µM): 2.29%
- viability, T/C (second compound 3.16 µM, first compound 0.00316 µM): 93%
- viability, T/C (second compound 3.16 µM, first compound 0.01 µM): 73.8%
- viability, T/C (second compound 3.16 µM, first compound 0.0316 µM): 40%
- viability, T/C (second compound 3.16 µM, first compound 0.1 µM): 7.44%
- viability, T/C (second compound 3.16 µM, first compound 0.316 µM): 2.53%
- viability, T/C (second compound 3.16 µM, first compound 1 µM): 1.91%
- viability, T/C (second compound 10 µM, first compound 0.00316 µM): 64.6%
- viability, T/C (second compound 10 µM, first compound 0.01 µM): 59.5%
- viability, T/C (second compound 10 µM, first compound 0.0316 µM): 30.3%
- viability, T/C (second compound 10 µM, first compound 0.1 µM): 9.79%
- viability, T/C (second compound 10 µM, first compound 0.316 µM): 3.81%
- viability, T/C (second compound 10 µM, first compound 1 µM): 3%

SMILES: CC(C)NCC(C(=O)N1CCN(c2ncnc3c2C(C)CC3O)CC1)c1ccc(Cl)cc1 (centres undefined) + CCn1c(-c2cc(N3CCN(C)CC3)cnc2C(C)OC)c2c3cc(ccc31)-c1csc(n1)CC(NC(=O)C1CC1C)C(=O)N1CCCC(N1)C(=O)OCC(C)(C)C2
- IC50 [1]: 511 nM
- IC50 [2]: 242 nM
- IC50 [3]: < 31.6 nM
- IC50 [4]: < 31.6 nM
- IC50 [5]: < 31.6 nM
- IC50 [6]: < 31.6 nM
- viability, T/C [7]: 80.6%
- viability, T/C [8]: 73.9%
- viability, T/C [9]: 64.6%
- viability, T/C [10]: 30.4%
- viability, T/C [11]: 14.7%
- viability, T/C [12]: 6.49%
- viability, T/C [13]: 62.2%
- viability, T/C [14]: 63.7%
- viability, T/C [15]: 44.8%
- viability, T/C [16]: 25.8%
- viability, T/C [17]: 10.7%
- viability, T/C [18]: 5.07%
- viability, T/C [19]: 39.6%
- viability, T/C [20]: 38%
- viability, T/C [21]: 24.9%
- viability, T/C [22]: 15%
- viability, T/C [23]: 8.4%
- viability, T/C [24]: 4.07%
- viability, T/C [25]: 22.4%
- viability, T/C [26]: 25%
- viability, T/C [27]: 16.6%
- viability, T/C [28]: 9.92%
- viability, T/C [29]: 7.32%
- viability, T/C [30]: 2.47%
- viability, T/C [31]: 16.7%
- viability, T/C [32]: 18%
- viability, T/C [33]: 13.8%
- viability, T/C [34]: 8.39%
- viability, T/C [35]: 5.39%
- viability, T/C [36]: 2.13%
- viability, T/C [37]: 18%
- viability, T/C [38]: 14%
- viability, T/C [39]: 12.4%
- viability, T/C [40]: 7.41%
- viability, T/C [41]: 3.93%
- viability, T/C [42]: 1.56%

SMILES: NC1c2ccccc2OC12CCN(c1cnc3c(N4CCCc5ncccc54)n[nH]c3n1)CC2 (centres undefined) + CCn1c(-c2cccnc2C(C)OC)c2c3cc(ccc31)N1CCOC(CC(NC(=O)C(C(C)C)N(C)C(=O)C3(F)CCN(C(=O)C#CC(C)(C)N(C)C)CC3)C(=O)N3CCCC(N3)C(=O)OCC(C)(C)C2)C1
- IC50 [1]: < 31.6 nM
- IC50 [2]: < 31.6 nM
- IC50 [3]: < 31.6 nM
- IC50 [4]: < 31.6 nM
- IC50 [5]: < 31.6 nM
- IC50 [6]: < 31.6 nM
- viability, T/C [7]: 35.5%
- viability, T/C [8]: 24.2%
- viability, T/C [9]: 17.8%
- viability, T/C [10]: 17%
- viability, T/C [11]: 11.9%
- viability, T/C [12]: 15.1%
- viability, T/C [13]: 32.3%
- viability, T/C [14]: 21.8%
- viability, T/C [15]: 20.1%
- viability, T/C [16]: 16.4%
- viability, T/C [17]: 15.2%
- viability, T/C [18]: 12.4%
- viability, T/C [19]: 27.7%
- viability, T/C [20]: 25.4%
- viability, T/C [21]: 21%
- viability, T/C [22]: 14.5%
- viability, T/C [23]: 14.9%
- viability, T/C [24]: 13.7%
- viability, T/C [25]: 28.8%
- viability, T/C [26]: 24.7%
- viability, T/C [27]: 21.4%
- viability, T/C [28]: 18.5%
- viability, T/C [29]: 15.8%
- viability, T/C [30]: 14.1%
- viability, T/C [31]: 38.2%
- viability, T/C [32]: 24.4%
- viability, T/C [33]: 24%
- viability, T/C [34]: 16.6%
- viability, T/C [35]: 15.4%
- viability, T/C [36]: 12.4%
- viability, T/C [37]: 26.1%
- viability, T/C [38]: 23.8%
- viability, T/C [39]: 18.8%
- viability, T/C [40]: 21.8%
- viability, T/C [41]: 16.9%
- viability, T/C [42]: 14.1%

More lines, main results first:

- IC50 (curve of compound): 1.78 µM [middle of 4 runs]
SMILES: CCC(CC)c1cc(NC2CCC(N)C2)n2nccc2n1 (centres undefined)
- viability, T/C (compound 0.0316 µM): 114% and 109% and 101% (2×)
- viability, T/C (compound 0.1 µM): 107% [middle of 4 runs]
- viability, T/C (compound 0.316 µM): 101% [middle of 4 runs]
- viability, T/C (compound 3.16 µM): 2.11% [middle of 4 runs]
- viability, T/C (compound 10 µM): 0.82% [middle of 4 runs]

- IC50 [1]: 35.2 nM
- IC50 [2]: < 31.6 nM
- IC50 [3]: 38.4 nM
- IC50 [4]: 34.8 nM
- IC50 [5]: 42.1 nM
- IC50 [6]: < 31.6 nM
SMILES: CC(Nc1ccc2c(c1)OCCn1cc(N3C(=O)OCC3C(F)F)nc1-2)C(N)=O (centres undefined) + CCn1c(-c2cccnc2C(C)OC)c2c3cc(ccc31)N1CCOC(CC(NC(=O)C(C(C)C)N(C)C(=O)C3(F)CCN(C(=O)C#CC(C)(C)N(C)C)CC3)C(=O)N3CCCC(N3)C(=O)OCC(C)(C)C2)C1
- viability, T/C [7]: 52.9%
- viability, T/C [8]: 31.6%
- viability, T/C [9]: 31.5%
- viability, T/C [10]: 16.4%
- viability, T/C [11]: 14.3%
- viability, T/C [12]: 7.59%
- viability, T/C [13]: 44.2%
- viability, T/C [14]: 36.5%
- viability, T/C [15]: 25.6%
- viability, T/C [16]: 25.1%
- viability, T/C [17]: 14.9%
- viability, T/C [18]: 9.07%
- viability, T/C [19]: 53%
- viability, T/C [20]: 37.7%
- viability, T/C [21]: 23.8%
- viability, T/C [22]: 19.6%
- viability, T/C [23]: 14.1%
- viability, T/C [24]: 8.01%
- viability, T/C [25]: 52%
- viability, T/C [26]: 34.8%
- viability, T/C [27]: 24.9%
- viability, T/C [28]: 18.9%
- viability, T/C [29]: 13.8%
- viability, T/C [30]: 7.4%
- viability, T/C [31]: 56%
- viability, T/C [32]: 32.5%
- viability, T/C [33]: 24.1%
- viability, T/C [34]: 21.1%
- viability, T/C [35]: 13.9%
- viability, T/C [36]: 7.55%
- viability, T/C [37]: 50.3%
- viability, T/C [38]: 35.7%
- viability, T/C [39]: 25.6%
- viability, T/C [40]: 19.4%
- viability, T/C [41]: 10.7%
- viability, T/C [42]: 6.72%
